Laboratory results reported in patent US7732449B2, “Inhibitors of cathepsin S” (IRM LLC, priority 2003, dated 2010).
Read-outs that look alike come from different tables or passages of the source.

How the values were obtained:
Type in all cases: biochemical
Cathepsin S = Cathepsin S (Homo sapiens, UniProt P25774); experiment: Cathepsin S inhibition, fluorogenic peptide substrate kinetic assay;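 note: cleavage rate of a coumarin-labelled peptide substrate (50 µM) read as fluorescence increase at Ex 380 nm and Em 450 nm, relative to inhibitor-free control reactions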
Sequence of Cathepsin S (P25774 115-331, species assumed): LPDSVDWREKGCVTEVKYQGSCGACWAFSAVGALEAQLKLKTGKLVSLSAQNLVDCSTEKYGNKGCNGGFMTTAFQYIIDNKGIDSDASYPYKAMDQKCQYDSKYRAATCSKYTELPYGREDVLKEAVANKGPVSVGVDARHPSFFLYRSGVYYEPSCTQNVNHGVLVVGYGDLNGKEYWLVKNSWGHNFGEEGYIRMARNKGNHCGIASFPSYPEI

Cathepsin B = Cathepsin B (Homo sapiens, UniProt P07858); experiment: Cathepsin B inhibition, fluorogenic peptide substrate kinetic assay (selectivity); conditions: ratio of cathepsin B inhibition constant to cathepsin S inhibition constant;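 note: value is the cathepsin B inhibition constant divided by the cathepsin S one, each from kinetic fluorescence readings (ex 380 nm, em 450 nm) of a 10 µM coumarin peptide substrate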
Cathepsin L = Cathepsin L (Homo sapiens, UniProt P07711); experiment: Cathepsin L inhibition, fluorogenic peptide substrate kinetic assay (selectivity); conditions: ratio of cathepsin L inhibition constant to cathepsin S inhibition constant
Sequence of Cathepsin L (P07711 114-333, species assumed): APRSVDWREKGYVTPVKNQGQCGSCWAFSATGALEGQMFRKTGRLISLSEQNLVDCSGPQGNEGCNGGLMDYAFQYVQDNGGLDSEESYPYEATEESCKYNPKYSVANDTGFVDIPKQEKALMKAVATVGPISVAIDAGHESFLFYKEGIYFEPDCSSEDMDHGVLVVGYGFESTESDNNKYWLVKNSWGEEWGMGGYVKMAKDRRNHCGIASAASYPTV

Cathepsin K = molecular target: T1, Cathepsin K (Homo sapiens, UniProt P43235); experiment: Cathepsin K inhibition, fluorogenic peptide substrate kinetic assay (selectivity); conditions: ratio of cathepsin K inhibition constant to cathepsin S inhibition constant
T1 sequence (P43235 115-329): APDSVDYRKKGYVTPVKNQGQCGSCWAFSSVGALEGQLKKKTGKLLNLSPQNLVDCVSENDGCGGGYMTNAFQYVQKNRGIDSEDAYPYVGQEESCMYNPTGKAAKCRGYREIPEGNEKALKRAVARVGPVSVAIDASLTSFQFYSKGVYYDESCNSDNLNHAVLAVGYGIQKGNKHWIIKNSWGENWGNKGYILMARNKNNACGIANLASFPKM

[1] = Cathepsin S inhibition constant, pH5.5, 20 minutes preincubation at room temperature, read-out: Ki Cat. S

Row | SMILES | Ki (Cathepsin S; [1]) [µM] | Selectivity for Cat. S over Cat. B (Cathepsin B) | Selectivity for Cat. S over Cat. L (Cathepsin L) | Selectivity for Cat. S over Cat. K (Cathepsin K) | Ki (Cathepsin S) [µM]
1 | O=C(NCCN1CCc2cc(F)ccc21)[C@H](CC1CCCCC1)NC(=O)N1CCOCC1 [Example 2, Morpholine-4-carboxylic acid {2-cyclohexyl-1-(S)-[2-(5-fluoro-2,3-dihydro-indol-1-yl)-ethylcarbamoyl]-ethyl}-amide] | < 0.1 | +++ (+++, >1000) | + (+, >10) | ++ (++, >100) | –
2 | CC(C)[C@@H](CNc1ccc(OC(F)(F)F)cc1)NC(=O)[C@H](CCc1ccccc1)CC(=O)N1CCOCC1 [Example 32, N-{2-Methyl-1-(S)-[(4-trifluoromethoxy-phenylamino)-methyl]-propyl}-4-morpholin-4-yl-4-oxo-2-(R)-phenethyl-butyramide] | – | +++ (+++, >1000) | + (+, >10) | – | < 0.1
3 | CC(C)[C@@H](CNc1ccc(OC(F)(F)F)cc1)NC(=O)[C@H](CC(=O)N1CCOCC1)c1ccc(S(C)(=O)=O)cc1 [Example 71, 2-(R)-(4-methanesulfonyl-phenyl)-N-{2-methyl-1-(S)-[(4-trifluoromethoxy-phenylamino)-methyl]-propyl}-4-morpholin-4-yl-4-oxo-butyramide] | 1 to 10 | + (+, >10) | ++ (++, >100) | – | –
4 | O=C(N[C@H](CN1CC2(CC2)c2cc(F)ccc21)C1CC1)[C@H](CC1CCCCC1)NC(=O)N1CCOCC1 [Example 82, Morpholine-4-carboxylic acid {2-cyclohexyl-1-(S)-[1-(S)-cyclopropyl-2-(5-fluoro-3,3-spirocyclopropyl-2,3-dihydro-indol-1-yl)-ethylcarbamoyl]-ethyl}-amide] | < 0.1 | ++ (++, >100) | – | ++ (++, >100) | –
5 | C[C@@H]1CN(C(=O)[C@H](CC2CCCCC2)OC(=O)N[C@@H](C)CN2c3ccc(F)cc3CC2(C)C)C[C@H](C)O1 [Example 93, [2-(5-Fluoro-2,2-dimethyl-2,3-dihydro-indol-1-yl)-1-(S)-methyl-ethyl]-carbamic acid 1-(S)-cyclohexylmethyl-2-(2,6-cis-dimethyl-morpholin-4-yl)-2-oxo-ethyl ester] | 1 to 10 | + (+, >10) | – | + (+, >10) | –

Second part, the compound after the results:

Row | Ki (Cathepsin S; [1]) [µM] | Selectivity for Cat. S over Cat. B (Cathepsin B) | Selectivity for Cat. S over Cat. L (Cathepsin L) | Selectivity for Cat. S over Cat. K (Cathepsin K) | Ki (Cathepsin S) [µM] | SMILES
6 | 1 to 10 | + (+, >10) | + (+, >10) | – | – | CC(C)[C@@H](CN1CC(C)(C)c2cc(F)ccc21)NC(=O)OC(C(=O)N1CCOCC1)c1ccccc1 (mixture of isomers) [Example 109, [1-(S)-(5-Fluoro-3,3-dimethyl-2,3-dihydro-indol-1-ylmethyl)-2-methyl-propyl]-carbamic acid 2-morpholin-4-yl-2-oxo-1-(R,S)-phenyl-ethyl ester]
7 | – | ++ (++, >100) | ++ (++, >100) | – | 0.1 to 1 | C[C@@H](CNc1ccc(OC(F)(F)F)cc1)NC(=O)[C@@H](CC(=O)N1CCOCC1)CC(C)(C)C [Example 26, 4,4-Dimethyl-2-(R)-(2-morpholin-4-yl-2-oxo-ethyl)-pentanoic acid [1-(S)-methyl-2-(4-trifluoromethoxy-phenylamino)-ethyl]-amide]
8 | 0.1 to 1 | + (+, >10) | + (+, >10) | – | – | C=CC[C@H](CC(=O)N1CCOCC1)C(=O)N[C@H](CNc1ccc(OC(F)(F)F)cc1)C(C)C [Example 47, 2-(R)-(2-Morpholin-4-yl-2-oxo-ethyl)-pent-4-enoic acid {2-methyl-1-(S)-[(4-trifluoromethoxy-phenylamino)-methyl]-propyl}-amide]
9 | 1 to 10 | + (+, >10) | + (+, >10) | – | – | C[C@@H](CNc1ccc(OC(F)F)cc1)NC(=O)O[C@@H](CC(C)(C)C)C(=O)N1CCOCC1 [Example 85, [2-(4-Difluoromethoxy-phenylamino)-1-(S)-methyl-ethyl]-carbamic acid 3,3-dimethyl-1-(S)-(morpholine-4-carbonyl)-butyl ester]
